Results on seven compounds are retold here after ChEMBL document CHEMBL1201862, “PubChem BioAssay data set” (2004).

Test systems include ACHN; HCT-116; HOP-92; HT-29; K562; M14; MCF7; Malme-3M; NCI-H226; NCI-H23; NCI-H522; OVCAR-4; SF-268; SK-MEL-28; SK-MEL-5; SN12C; SNB-19; SR; U-251; UACC-257.
What all share (assay): inhibition of tumour cell growth, NCI panel, 48 h

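Five compound concentrations were applied to cells in 96-well plates for 48 hours; endpoints were derived by simple linear interpolation of the resulting dose-response curve. GI50: concentration for 50% inhibition of growth.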 Activity calls are given as the source filed them. Rule as the data show it: active = GI50 up to about 1.1 µM and inactive = higher.

On to `CC(=O)NC1C(OCc2ccccc2)OC(CO)C(O)C1OCC(=O)N[C@@H](C)C(=O)N[C@H](CCC(=O)NCCCCNc1c2ccccc2nc2cccc([N+](=O)[O-])c12)C(N)=O` (stereo partly drawn), for which the GI50 in the assay on ACHN is 1.33 µM (inactive); in the assay with HCT-116, 0.637 µM (active); in the assay on HOP-92, 0.748 µM (active); with HT-29, 1.18 µM (inactive); in the assay on K562 it was 1.13 µM (inactive); with M14 it was 2.23 µM (inactive). Further, the GI50 is 0.771 µM (active) in the assay with MCF7; 1.34 µM (inactive) in the assay with Malme-3M; 1.84 µM (inactive) in the assay on NCI-H226; 0.984 µM (active) with NCI-H23; 0.134 µM (active) in the assay with NCI-H522; 0.957 µM (active) with OVCAR-4. The GI50 in the assay on SF-268 was 2.58 µM (inactive); with SK-MEL-28, 4.5 µM (inactive); in the assay on SK-MEL-5 it was 0.516 µM (active); in the assay with SN12C, 2.25 µM (inactive); in the assay with SNB-19, 4.53 µM (inactive); with SR, 1.07 µM (active). Moreover, the GI50 is 1.87 µM (inactive) in the assay on U-251 and 2.13 µM (inactive) in the assay with UACC-257.

With `Brc1ccc(-c2cn3ccncc3n2)cc1`, the GI50 in the assay on ACHN, in the assay on HCT-116, in the assay on HOP-92, with HT-29, in the assay on K562 and in the assay with M14 was > 100 µM (inactive) throughout. In addition, the GI50 in the assay on MCF7, in the assay with Malme-3M, in the assay with NCI-H226, with NCI-H23, in the assay with NCI-H522 and in the assay with OVCAR-4 was > 100 µM (inactive) each time. Besides, the GI50 with SF-268, with SK-MEL-28, in the assay on SK-MEL-5, with SN12C, in the assay on SNB-19 and in the assay on SR was > 100 µM (inactive) in each case. In addition, the results for the GI50 in the assay on U-251 and with UACC-257 were > 100 µM (inactive) and 14.9 µM (inactive), respectively.

On to `CC(C)(C)[Si](C)(C)OCC1CCC(n2cnc3c(NC(=O)c4ccccc4)ncnc32)O1` (stereo not drawn), for which the GI50 in the assay with ACHN is 19.2 µM (inactive); in the assay with HCT-116, 19 µM (inactive); with HOP-92, 16.6 µM (inactive); in the assay with HT-29, 19.1 µM (inactive); with K562, 18.7 µM (inactive); with M14, 16.7 µM (inactive). The GI50 is 23.9 µM (inactive) in the assay with MCF7; 19.9 µM (inactive) in the assay on Malme-3M; 15.1 µM (inactive) in the assay with NCI-H226; 18.4 µM (inactive) in the assay with NCI-H23; 16.4 µM (inactive) in the assay on NCI-H522; 21.8 µM (inactive) in the assay on OVCAR-4. Moreover, the GI50 was 17.7 µM (inactive) in the assay on SF-268; 14.3 µM (inactive) with SK-MEL-28; 11.5 µM (inactive) with SK-MEL-5; 18 µM (inactive) with SN12C; 18.9 µM (inactive) with SNB-19; 29.9 µM (inactive) with SR. Also, the GI50 is 18.2 µM (inactive) in the assay with U-251 and 18.7 µM (inactive) in the assay on UACC-257.

Take `Cc1c(-c2ccccc2)c(-c2ccc(OCCN(C)C)cc2)n2ccccc12`: the GI50 with ACHN was 13.9 µM (inactive); with HCT-116, 5.61 µM (inactive); in the assay on HOP-92, 8.59 µM (inactive); in the assay on HT-29, 1.82 µM (inactive); in the assay with K562, 1.84 µM (inactive); in the assay on M14, 1.79 µM (inactive). The GI50 in the assay on MCF7 is 7.62 µM (inactive); with Malme-3M, 4.38 µM (inactive); with NCI-H226 it was 15.2 µM (inactive); in the assay on NCI-H23, 16.6 µM (inactive); with NCI-H522, 9.06 µM (inactive); in the assay with OVCAR-4, 12.4 µM (inactive). Further, the GI50 with SF-268 was 14.3 µM (inactive); in the assay with SK-MEL-28, 1.79 µM (inactive); in the assay with SK-MEL-5, 1.87 µM (inactive); in the assay with SN12C it was 12.1 µM (inactive); with SNB-19, 12 µM (inactive); in the assay with SR, 2.43 µM (inactive). Further, the GI50 with U-251 was 7.76 µM (inactive); in the assay on UACC-257 it was 2.04 µM (inactive).

In the case of `COC1=C(OC)C(=O)C(Sc2ccc3ccccc3c2)=CC1=O`, the GI50 with ACHN is 8.28 µM (inactive); in the assay with HCT-116 it was 4.58 µM (inactive); in the assay on HOP-92, 19 µM (inactive); in the assay with HT-29 it was 14.7 µM (inactive); in the assay with K562, 2.99 µM (inactive); with M14, 4.35 µM (inactive). The GI50 in the assay on MCF7 was 4.25 µM (inactive); in the assay with Malme-3M, 11.9 µM (inactive); with NCI-H226, 6.03 µM (inactive); with NCI-H23, 11.2 µM (inactive); with NCI-H522 it was 1.82 µM (inactive); in the assay with OVCAR-4, 3.67 µM (inactive). Also, the GI50 in the assay with SF-268 was 9.86 µM (inactive); in the assay with SK-MEL-28 it was 16.3 µM (inactive); in the assay on SK-MEL-5 it was 3.1 µM (inactive); with SN12C it was 7.87 µM (inactive); in the assay on SNB-19, 14.1 µM (inactive); in the assay on SR, 2.09 µM (inactive). Further, the GI50 with U-251 is 4.89 µM (inactive); in the assay on UACC-257 it was 7.69 µM (inactive).

For the compound `O=C1NC(N2CCCCC2)=N/C1=C\c1ccc(Cl)cc1`, the GI50 is 36.4 µM (inactive) in the assay with ACHN; 26.5 µM (inactive) with HCT-116; 13 µM (inactive) with HOP-92; 16.6 µM (inactive) in the assay on HT-29; 66.8 µM (inactive) in the assay on M14; 47.2 µM (inactive) in the assay on MCF7. Moreover, the GI50 is 16.5 µM (inactive) in the assay with Malme-3M; 22.3 µM (inactive) in the assay on NCI-H226; 37.2 µM (inactive) in the assay with NCI-H23; 21 µM (inactive) in the assay with NCI-H522; 68.4 µM (inactive) in the assay on OVCAR-4; 38.2 µM (inactive) in the assay with SF-268. For the same compound, the GI50 was 92 µM (inactive) with SK-MEL-28; 35.5 µM (inactive) in the assay with SK-MEL-5; 72.6 µM (inactive) in the assay on SN12C; 37 µM (inactive) in the assay with SNB-19; > 100 µM (inactive) in the assay with SR; 44.5 µM (inactive) in the assay with U-251. For the same compound, the GI50 in the assay on UACC-257 was 36.6 µM (inactive).

On to `N=c1oc2ccccc2cc1-c1nc2ccccc2c(=O)[nH]1`, for which the GI50 was 22.1 µM (inactive) in the assay with ACHN; 42.9 µM (inactive) in the assay with HCT-116; 20 µM (inactive) in the assay on HOP-92; 39.1 µM (inactive) in the assay on HT-29; > 100 µM (inactive) in the assay with K562; > 100 µM (inactive) with M14. Further, the GI50 in the assay on MCF7 is 19.5 µM (inactive); with Malme-3M, 60.8 µM (inactive); with NCI-H226, 29.7 µM (inactive); in the assay with NCI-H522 it was 14.7 µM (inactive); in the assay on OVCAR-4 it was > 100 µM (inactive); with SF-268, 29 µM (inactive). Further, the GI50 with SK-MEL-28 is > 100 µM (inactive); in the assay with SK-MEL-5, > 100 µM (inactive); in the assay on SN12C, > 100 µM (inactive); in the assay on SNB-19, 30.1 µM (inactive); with SR, 42.9 µM (inactive); in the assay on U-251 it was 32 µM (inactive). Further, the GI50 in the assay with UACC-257 was > 100 µM (inactive).
